For 28 molecules, Kb results are on record in US10092546B2, “Imidazole derivatives” (Hoffman-La Roche Inc., priority 2015, dated 2018).

The target of the experiment is T1, human EAAT3 (Homo sapiens, UniProt P43005).
T1 construct: expressed in transfected cells
T1 sequence (P43005 1-524): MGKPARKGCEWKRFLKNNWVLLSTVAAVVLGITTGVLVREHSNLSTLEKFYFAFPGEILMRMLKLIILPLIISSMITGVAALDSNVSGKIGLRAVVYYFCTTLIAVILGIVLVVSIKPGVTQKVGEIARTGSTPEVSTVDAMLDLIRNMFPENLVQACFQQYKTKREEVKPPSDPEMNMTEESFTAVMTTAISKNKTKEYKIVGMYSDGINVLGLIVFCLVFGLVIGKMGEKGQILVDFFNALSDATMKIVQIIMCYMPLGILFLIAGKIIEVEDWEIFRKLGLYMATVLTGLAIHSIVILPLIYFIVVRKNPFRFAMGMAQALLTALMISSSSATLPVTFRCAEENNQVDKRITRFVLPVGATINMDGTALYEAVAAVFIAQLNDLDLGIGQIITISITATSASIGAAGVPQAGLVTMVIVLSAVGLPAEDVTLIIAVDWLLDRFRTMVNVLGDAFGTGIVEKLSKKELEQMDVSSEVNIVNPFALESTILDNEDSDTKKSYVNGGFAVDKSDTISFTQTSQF
Description: FLIPR Membrane Potential (FMP) assay, antagonist potency at human EAAT3. It counts as cell-based. Conditions: HEK-293 cells stably expressing human EAAT3; L-glutamate as agonist at EC80; antagonist applied 15 min before; Kb by Cheng-Prusoff from IC50. As to the method: The FLIPR Membrane Potential (FMP) Assay
HEK-293 cells stably expressing human EAAT3 were seeded at 55 000 cells/well in growth medium (DMEM glutamate free (Invitrogen 11960-044), 1% Pen Strep (10 ml/l GIBCO BRL No 15140-023), 10% FCS non dialysed heat inactivated, 5 mg/l puromycin) in poly-D-lysine treated 96-well black microtiter plates with clear-bottom. After 24 h, the growth medium was removed and 100 μl/well of Krebs buffer (140 mM NaCl, 4.7 mM KCl, 2.5 mM CaCl2, 1.2 mM MgCl2, 11 mM HEPES, 10 mM D-glucose, pH=7.4) added. The cells were then loaded by adding 100 μl/well FMP assay dye (FLIPR Membrane Potential assay reagent, Molecular Devices). The 96-well plates were then incubated at 37° C. for 1 h. The depolarization of the cells will cause more dye to enter in the cells, where it will bind to intracellular proteins and lipids and cause an increase in the fluorescence signal. Antagonist potency at human EAAT3 was determined by using L-glutamate as agonist at a concentration which gives 80% of the maximum response. The antagonists were applied 15 min before the application of the agonist L-glutamate. The assays were performed at room temperature and measurements done by using a Fluorometric Imaging Plate Reader (FLIPR, Molecular Devices) and filter #2. Responses were measured as peak increase in fluorescence minus basal (i.e. fluorescence without addition of L-glutamate). Kb was determined using the Cheng-Prusoff equation Kb=IC50/[1+(A/EC50)], where IC50 is the concentration of the antagonist producing 50% inhibition, A is the concentration of the agonist against which the IC50 is being determined (at EC80) and EC50 is the concentration of the agonist producing 50% […].
One may read the Kb as the equilibrium dissociation constant of an antagonist, usually derived from a functional assay. Low values mean higher antagonist affinity, high ones lower antagonist affinity. `CC(C)c1nccn1-c1cc(C(=O)NC2(C)CCS(=O)(=O)C2)cc(-c2ccc(F)cc2)n1` (racemic) [Example 38, (RS)-2-(4-Fluorophenyl)-N-(3-methyl-1,1-dioxothiolan-3-yl)-6-(2-propan-2-ylimidazol-1-yl)-pyridine-4-carboxamide] registered a Kb of 0.14 µM. This lies in the sub-micromolar range.

Molecule `CC(C)c1nccn1-c1cc(C(=O)NC(C)(C)C)cc(-c2ccc(Cl)cc2)n1` [Example 1, N-tert-Butyl-2-(4-chlorophenyl)-6-(2-propan-2-yl-imidazol-1-yl)-pyridine-4-carboxamide] came in with a Kb of 0.14 µM.

The molecule `CC(C)c1nccn1-c1cc(C(=O)NC(C)(C)C)cc(-c2ccc(C(F)(F)F)cc2)n1` [Example 3, N-tert-Butyl-2-(2-propan-2-yl-imidazol-1-yl)-6-[4-(trifluoromethyl)-phenyl]-pyridine-4-carboxamide] showed a Kb of 0.46 µM. Against the preceding molecule, the Kb is about 3.3-fold higher.

For the molecule `CC(C)(C)NC(=O)c1cc(-c2ccc(F)cc2)nc(-n2ccnc2C2CC2)c1` [Example 4, N-tert-Butyl-2-(2-cyclopropyl-imidazol-1-yl)-6-(4-fluorophenyl)-pyridine-4-carboxamide], the Kb is 0.16 µM.

For `CC(C)(C)NC(=O)c1cc(-c2ccc(Cl)cc2)nc(-n2ccnc2C2CC2)c1` [Example 5, N-tert-Butyl-2-(4-chlorophenyl)-6-(2-cyclopropyl-imidazol-1-yl)-pyridine-4-carboxamide], the Kb was found to be 0.12 µM.

Take `CC(C)(C)NC(=O)c1cc(-c2ccc(F)cc2)nc(-n2ccnc2)c1` [Example 6, N-tert-Butyl-2-(4-fluorophenyl)-6-imidazol-1-yl-pyridine-4-carboxamide]: the Kb came to 1 µM.

Molecule `Cc1nccn1-c1cc(C(=O)NC(C)(C)C)cc(-c2ccc(F)cc2)n1` [Example 7, N-tert-Butyl-2-(4-fluorophenyl)-6-(2-methyl-imidazol-1-yl)-pyridine-4-carboxamide] had a Kb of 0.43 µM.

The molecule `CCc1nccn1-c1cc(C(=O)NC(C)(C)C)cc(-c2ccc(F)cc2)n1` [Example 8, N-tert-Butyl-2-(2-ethyl-imidazol-1-yl)-6-(4-fluorophenyl)-pyridine-4-carboxamide] displayed a Kb of 0.21 µM.

In the case of `CC(C)(C)NC(=O)c1cc(-c2ccc(Cl)cc2)nc(-n2ccnc2)c1` [Example 9, N-tert-Butyl-2-(4-chlorophenyl)-6-imidazol-1-yl-pyridine-4-carboxamide], the antagonist equilibrium constant (Kb) was 0.6 µM.

`Cc1nccn1-c1cc(C(=O)NC(C)(C)C)cc(-c2ccc(Cl)cc2)n1` [Example 10, N-tert-Butyl-2-(4-chlorophenyl)-6-(2-methyl-imidazol-1-yl)-pyridine-4-carboxamide] had a Kb of 0.3 µM.

As to `CCc1nccn1-c1cc(C(=O)NC(C)(C)C)cc(-c2ccc(Cl)cc2)n1` [Example 11, N-tert-Butyl-2-(4-chlorophenyl)-6-(2-ethyl-imidazol-1-yl)-pyridine-4-carboxamide], the Kb is 0.25 µM.

Regarding `CC(C)(C)NC(=O)c1cc(-c2ccc(Cl)cc2)nc(-n2ccnc2C(C)(C)C)c1` [Example 12, N-tert-Butyl-2-(2-tert-butyl-imidazol-1-yl)-6-(4-chlorophenyl)-pyridine-4-carboxamide], the Kb came to 0.063 µM.

Take `CC(C)(C)NC(=O)c1cc(-c2ccc(F)cc2)nc(-n2ccnc2C(C)(C)C)c1` [Example 13, N-tert-Butyl-2-(2-tert-butyl-imidazol-1-yl)-6-(4-fluorophenyl)-pyridine-4-carboxamide]: the Kb stood at 0.058 µM. The Kb values of the last two molecules are within 1.5-fold of each other.

As to `CC(C)c1nccn1-c1cc(C(=O)NC(C)(C)C2CC2)cc(-c2ccc(Cl)cc2)n1` [Example 15, 2-(4-Chlorophenyl)-N-(2-cyclopropylpropan-2-yl)-6-(2-propan-2-yl-imidazol-1-yl)-pyridine-4-carboxamide], the Kb turned out to be 0.15 µM.

`CC(C)(NC(=O)c1cc(-c2ccc(Cl)cc2)nc(-n2ccnc2C2CC2)c1)C1CC1` [Example 16, 2-(4-Chlorophenyl)-6-(2-cyclopropyl-imidazol-1-yl)-N-(2-cyclopropyl-propan-2-yl)-pyridine-4-carboxamide] returned a Kb of 0.3 µM.

Consider `CC(C)(C)c1nccn1-c1cc(C(=O)NC(C)(C)C2CC2)cc(-c2ccc(Cl)cc2)n1` [Example 17, 2-(2-tert-Butylimidazol-1-yl)-6-(4-chlorophenyl)-N-(2-cyclopropyl-propan-2-yl)-pyridine-4-carboxamide], for which the Kb came out at 0.28 µM. This Kb and that of the molecule before are within 1.5-fold of each other.

For `CC(C)(C)NC(=O)c1cc(-c2ccc(F)cc2)nc(-n2ccnc2C(C)(C)O)c1` [Example 18, N-tert-Butyl-2-(4-fluorophenyl)-6-[2-(2-hydroxypropan-2-yl)-imidazol-1-yl]-pyridine-4-carboxamide], the Kb was determined as 0.1 µM.

`CC(C)(C)NC(=O)c1cc(-c2ccc(C(F)(F)F)cc2)nc(-n2ccnc2C(C)(C)C)c1` [Example 19, N-tert-Butyl-2-(2-tert-butylimidazol-1-yl)-6-[4-(trifluoromethyl)-phenyl]-pyridine-4-carboxamide]: the Kb is 0.18 µM.

Consider `CC(C)(C)NC(=O)c1cc(-c2ccc(C(F)(F)F)cc2)nc(-n2ccnc2C2CC2)c1` [Example 20, N-tert-Butyl-2-(2-cyclopropyl-imidazol-1-yl)-6-[4-(trifluoromethyl)-phenyl]-pyridine-4-carboxamide], for which the Kb worked out at 0.29 µM.

As to `Cc1nccn1-c1cc(C(=O)NC(C)(C)C)cc(-c2ccc(C(F)(F)F)cc2)n1` [Example 21, N-tert-Butyl-2-(2-methyl-imidazol-1-yl)-6-[4-(trifluoromethyl)-phenyl]-pyridine-4-carboxamide], the Kb amounted to 0.65 µM.

Molecule `CC(C)(C)NC(=O)c1cc(-c2ccc(Cl)cc2)nc(-n2ccnc2CO)c1` [Example 22, N-tert-Butyl-2-(4-chlorophenyl)-6-[2-(hydroxymethyl)-imidazol-1-yl]-pyridine-4-carboxamide] displayed a Kb of 0.5 µM.

The molecule `CC(C)c1nccn1-c1cc(C(=O)NC(C)(C)C(F)(F)F)cc(-c2ccc(Cl)cc2)n1` [Example 23, 2-(4-Chlorophenyl)-6-(2-propan-2-yl-imidazol-1-yl)-N-(1,1,1-trifluoro-2-methylpropan-2-yl)-pyridine-4-carboxamide] showed a Kb of 0.32 µM.

`CC(C)(NC(=O)c1cc(-c2ccc(Cl)cc2)nc(-n2ccnc2C2CC2)c1)C(F)(F)F` [Example 24, 2-(4-Chlorophenyl)-6-(2-cyclopropyl-imidazol-1-yl)-N-(1,1,1-trifluoro-2-methylpropan-2-yl)-pyridine-4-carboxamide] showed a Kb of 0.51 µM.

In the case of `Cc1cc(-c2cc(C(=O)NC(C)(C)C)cc(-n3ccnc3C(C)(C)C)n2)ccc1F` [Example 29, N-tert-Butyl-2-(2-tert-butyl-imidazol-1-yl)-6-(4-fluoro-3-methyl-phenyl)-pyridine-4-carboxamide], the Kb was 0.15 µM.

Consider `CC(C)c1nccn1-c1cc(C(=O)NC(C)(C)CO)cc(-c2ccc(Cl)cc2)n1` [Example 30, 2-(4-Chlorophenyl)-N-(1-hydroxy-2-methylpropan-2-yl)-6-(2-propan-2-yl-imidazol-1-yl)-pyridine-4-carboxamide], for which the Kb was 0.19 µM.

The molecule `CC(C)(C)NC(=O)c1cc(-c2ccc(Cl)cc2)nc(-n2ccnc2C(C)(C)O)c1` [Example 33, N-tert-Butyl-2-(4-chlorophenyl)-6-[2-(2-hydroxypropan-2-yl)-imidazol-1-yl]-pyridine-4-carboxamide] came in with a Kb of 0.17 µM.

Regarding `CC(C)(C)NC(=O)c1cc(-c2ccc(C(F)(F)F)cc2)nc(-n2ccnc2C(C)(C)O)c1` [Example 34, N-tert-Butyl-2-[2-(2-hydroxypropan-2-yl)-imidazol-1-yl]-6-[4-(trifluoromethyl)-phenyl]-pyridine-4-carboxamide], the Kb worked out at 0.24 µM.

Molecule `CC(C)(O)c1nccn1-c1cc(C(=O)NC(C)(C)C2CC2)cc(-c2ccc(Cl)cc2)n1` [Example 35, 2-(4-Chlorophenyl)-N-(2-cyclopropylpropan-2-yl)-6-[2-(2-hydroxypropan-2-yl)-imidazol-1-yl]-pyridine-4-carboxamide] yielded a Kb of 0.15 µM. Against the preceding molecule, the Kb is about 1.6-fold lower.
